Measurements from US20110306606A1, “NOVEL 2,6-SUBSTITUTED-3-NITROPYRIDINE DERIVATIVE, METHOD FOR PREPARING SAME, AND PHARMACEUTICAL COMPOSITION INCLUDING SAME” (priority 2008, published 2011).

Test system: Osteoblasts (Calvarial cells)
Assay: Cytotoxicity test (MTT)
Conditions: 1 μM compound, 72 hours, in comparison with vehicle control
Description: For the preparation of osteoblasts (Calvarial cells), the calvaria were aseptically dissected from 1 to 2-day-old neonatal ICR mice and subjected to continuous reaction with a 0.2% collagenase solution to separate osteoblasts. The cell-suspended supernatant was centrifuged to recover osteoblasts which were grown to full confluence in an α-MEM supplemented with 10% FBS and then diluted to a desired cell density for use in the experiment.
Cytotoxicity of the compounds of the present invention was evaluated by carrying out the experiment described below.
The vehicle control group was established to contain 0.2% DMSO. 100 μL/well of the diluted drugs were dispensed into 96-well plates to which osteoblasts (calvarial cells) prepared in Experimental Example 1 were then added at a density of 1.0×10^4 cells/100 μL/well. Here, the final compound concentration in the cell culture was 1 μM, and the vehicle control group contained 0.1% DMSO. The cells were cultured in a 5% CO2 inhibitor at 37° for 72 hours. 25 μL of 3-(4,5-dimethyl-2-thiazolyl)-2,5-diphenyl-2H-tetrazolium bromide (MTT) dissolved in PBS (2 mg/mL) was added to each cell culture 4 hours before the end of culture. After completion of the reaction, the plates were centrifuged, the media were discarded, and 100 μL of formazan was added and dissolved in dimethyl sulfoxide (DMSO). Finally, the absorbance of the developed plates was measured at 540 nm. The cell viability was expressed as % concentration in comparison with the vehicle control group.

Question: With `Cc1ccc(Nc2nc(N(C)CC3OCCO3)ccc2[N+](=O)[O-])cc1` [Compound 4, 2-(4-methylphenylamino)-6-[(N-[1,3]-dioxolan-2-ylmethyl)methylamino]-3-nitropyridine] as the molecule, how does the “Cell viability (%) Calvarial cell” value read?
Answer: The value was 104%.

Question: Which “Cell viability (%) Calvarial cell” value does the source give for `Cc1ccc(Nc2nc(NCc3ccncc3)ccc2[N+](=O)[O-])cc1` [Compound 8] here?
Answer: Its value is 92%.

Question: With `COc1ccc(Nc2nc(N(C)CCO)ccc2[N+](=O)[O-])cc1` [Compound 24, 2-(4-methoxyphenylamino)-6-[(N-methyl-2-hydroxy)ethylamino]-3-nitropyridine] as the molecule, how does the “Cell viability (%) Calvarial cell” value read?
Answer: Its value is 99%.

Question: How did the “Cell viability (%) Calvarial cell” value turn out when `CN(CC1OCCO1)c1ccc([N+](=O)[O-])c(Nc2ccc(C(C)(C)C)cc2)n1` [Compound 33, 2-[4-(t-butyl)phenylamino]-6-[(N-[1,3]-dioxolan-2-ylmethyl)methylamino]-3-nitropyridine] was run?
Answer: The value was 93%.

Question: For `CC1=NCCN1c1ccc([N+](=O)[O-])c(Nc2ccc(C#N)cc2)n1` [Compound 48, 2-(4-cyanophenylamino)-6-[(2-methyl-4,5-dihydro)imidazol-1-yl]-3-nitropyridine], which “Cell viability (%) Calvarial cell” value is on record?
Answer: Its value is 103%.

Question: `Nc1ccc(Nc2nc(NCCN3CCOCC3)ccc2[N+](=O)[O-])cc1` [Compound 68, 2-[4-(amino)phenylamino]-6-[2-(morpholin-1-yl)ethylamino]-3-nitropyridine] was tested. Which “Cell viability (%) Calvarial cell” value did it give?
Answer: Its value is 103%.

Question: `Nc1ccc(Nc2nc(NCCCN3CCOCC3)ccc2[N+](=O)[O-])cc1` [Compound 69, 2-[4-(amino)phenylamino]-6-[3-(morpholin-1-yl)propylamino]-3-nitropyridine] was tested. Which “Cell viability (%) Calvarial cell” value did it give?
Answer: Its value is 110%.

Question: How did the “Cell viability (%) Calvarial cell” value turn out when `Nc1cccc(Nc2nc(NCCN3CCOCC3)ccc2[N+](=O)[O-])c1` [Compound 83, 2-[3-(amino)phenylamino]-6-[2-(morpholin-1-yl)ethylamino]-3-nitropyridine] was run?
Answer: The value was 99%.

Question: How did the “Cell viability (%) Calvarial cell” value turn out when `Nc1cccc(Nc2nc(NCCCN3CCOCC3)ccc2[N+](=O)[O-])c1` [Compound 84, 2-[3-(amino)phenylamino]-6-[3-(morpholin-1-yl)propylamino]-3-nitropyridine] was run?
Answer: Its value is 108%.

Question: `CN(CC1OCCO1)c1ccc([N+](=O)[O-])c(Nc2ccc(N3CCOCC3)cc2)n1` [Compound 111, 2-(4-morpholinophenylamino)-6-[(N-[1,3]-dioxolan-2-ylmethyl)methylamino]-3-nitropyridine] was tested. Which “Cell viability (%) Calvarial cell” value did it give?
Answer: Its value is 95%.

Question: With `CN(CC1OCCO1)c1ccc([N+](=O)[O-])c(Nc2ccc(F)c(F)c2)n1` [Compound 127, 2-[(3,4-difluoro)phenylamino]-6-[(N-[1,3]-dioxolan-2-ylmethyl)-methylamino]-3-nitropyridine] as the molecule, how does the “Cell viability (%) Calvarial cell” value read?
Answer: The value was 99%.

Question: With `CCN(CCO)c1ccc([N+](=O)[O-])c(Nc2ccc(-c3csc(C4CCCCC4)n3)cc2)n1` [Compound 156, 2-[4-(2-cyclohexylthiazol-4-yl)phenylamino]-6-[(N-ethyl-2-hydroxyethyl)amino]-3-nitropyridine] as the molecule, how does the “Cell viability (%) Calvarial cell” value read?
Answer: Its value is 108%.

Question: `CN1CCN(c2ccc([N+](=O)[O-])c(Nc3ccc(-c4csc(C5CCCCC5)n4)cc3)n2)CC1` [Compound 159] was tested. Which “Cell viability (%) Calvarial cell” value did it give?
Answer: Its value is 100%.

Question: How did the “Cell viability (%) Calvarial cell” value turn out when `CCN(CC)c1ccc(Nc2nc(NC)ccc2[N+](=O)[O-])cc1F` [Compound 175, 2-[(3-fluoro-4-diethylamino)phenylamino]-6-(methylamino)-3-nitropyridine] was run?
Answer: The value was 104%.

Question: `CCN(CC)c1ccc(Nc2nc(NC(C)C)ccc2[N+](=O)[O-])cc1F` [Compound 176, 2-[(3-fluoro-4-diethylamino)phenylamino]-6-(isopropylamino)-3-nitropyridine] was tested. Which “Cell viability (%) Calvarial cell” value did it give?
Answer: Its value is 109%.

Question: With `CCN(CC)c1ccc(Nc2nc(NC(C)(C)C)ccc2[N+](=O)[O-])cc1F` [Compound 178, 2-[(3-fluoro-4-diethylamino)phenylamino]-6-(t-butylamino)-3-nitropyridine] as the molecule, how does the “Cell viability (%) Calvarial cell” value read?
Answer: The value was 109%.

Question: `CCN(CC)c1ccc(Nc2nc(N3CCC(O)CC3)ccc2[N+](=O)[O-])cc1F` [Compound 179, 2-[(3-fluoro-4-diethylamino)phenylamino]-6-(4-hydroxypiperidino)-3-nitropyridine] was tested. Which “Cell viability (%) Calvarial cell” value did it give?
Answer: The value was 104%.

Question: With `CCN(CC)c1ccc(Nc2nc(-n3ccnc3C(C)C)ccc2[N+](=O)[O-])cc1F` [Compound 180, 2-[(3-fluoro-4-diethylamino)phenylamino]-6-[(2-isopropyl)imidazol-1-yl]-3-nitropyridine] as the molecule, how does the “Cell viability (%) Calvarial cell” value read?
Answer: The value was 100%.

Question: How did the “Cell viability (%) Calvarial cell” value turn out when `CCN(CC)c1ccc(Nc2nc(N3CCN=C3C)ccc2[N+](=O)[O-])cc1F` [Compound 181, 2-[(3-fluoro-4-diethylamino)phenylamino]-6-[(2-methyl-4,5-dihydro)imidazol-1-yl]-3-nitropyridine] was run?
Answer: Its value is 106%.

Question: `CCN(CC)c1ccc(Nc2nc(N3CCNCC3)ccc2[N+](=O)[O-])cc1F` [Compound 182, 2-[(3-fluoro-4-diethylamino)phenylamino]-6-(piperazin-1-yl)-3-nitropyridine] was tested. Which “Cell viability (%) Calvarial cell” value did it give?
Answer: Its value is 101%.

Question: `CCN(CC)c1ccc(Nc2nc(N3CCN(C)CC3)ccc2[N+](=O)[O-])cc1F` [Compound 183, 2-[(3-fluoro-4-diethylamino)phenylamino]-6-(4-methylpiperazin-1-yl)-3-nitropyridine] was tested. Which “Cell viability (%) Calvarial cell” value did it give?
Answer: The value was 113%.

Question: How did the “Cell viability (%) Calvarial cell” value turn out when `CCN(CC)c1ccc(Nc2nc(N3CCOCC3)ccc2[N+](=O)[O-])cc1F` [Compound 184, 2-[(3-fluoro-4-diethylamino)phenylamino]-6-morpholino-3-nitropyridine] was run?
Answer: Its value is 110%.

Question: For `CCN(CC)c1ccc(Nc2nc(NCc3cccnc3)ccc2[N+](=O)[O-])cc1F` [Compound 185, 2-[(3-fluoro-4-diethylamino)phenylamino]-6-[(3-pyridyl)methylamino]-3-nitropyridine], which “Cell viability (%) Calvarial cell” value is on record?
Answer: The value was 111%.

Question: For `CCN(CC)c1ccc(Nc2nc(NCc3ccncc3)ccc2[N+](=O)[O-])cc1F` [Compound 186, 2-[(3-fluoro-4-diethylamino)phenylamino]-6-[(4-pyridyl)methylamino]-3-nitropyridine], which “Cell viability (%) Calvarial cell” value is on record?
Answer: Its value is 113%.

Question: With `CCN(CC)c1ccc(Nc2nc(N3CCC(N)CC3)ccc2[N+](=O)[O-])cc1F` [Compound 187, 2-[(3-fluoro-4-diethylamino)phenylamino]-6-(4-aminopiperidino)-3-nitropyridine] as the molecule, how does the “Cell viability (%) Calvarial cell” value read?
Answer: The value was 102%.

Question: For `CCN(CC)c1ccc(Nc2nc(NCCN3CCOCC3)ccc2[N+](=O)[O-])cc1F` [Compound 188, 2-[(3-fluoro-4-diethylamino)phenylamino]-6-[2-(morpholin-1-yl)ethylamino]-3-nitropyridine], which “Cell viability (%) Calvarial cell” value is on record?
Answer: The value was 111%.

Question: With `CCN(CC)c1ccc(Nc2nc(NCCCn3ccnc3)ccc2[N+](=O)[O-])cc1F` [Compound 189, 2-[(3-fluoro-4-diethylamino)phenylamino]-6-[(3-imidazol-1-yl)propylamino]-3-nitropyridine] as the molecule, how does the “Cell viability (%) Calvarial cell” value read?
Answer: The value was 129%.

Question: Which “Cell viability (%) Calvarial cell” value does the source give for `CCN(CC)c1ccc(Nc2nc(NCCCN3CCOCC3)ccc2[N+](=O)[O-])cc1F` [Compound 190, 2-[(3-fluoro-4-diethylamino)phenylamino]-6-[(3-morpholin-1-yl)propylamino]-3-nitropyridine] here?
Answer: Its value is 123%.

Question: For `O=[N+]([O-])c1ccc(N2CCC(O)CC2)nc1Nc1ccc(N2CCOCC2)c(F)c1` [Compound 194, 2-[(3-fluoro-4-morpholino)phenylamino]-6-(4-hydroxypiperidino)-3-nitropyridine], which “Cell viability (%) Calvarial cell” value is on record?
Answer: Its value is 107%.

Question: `CC1=NCCN1c1ccc([N+](=O)[O-])c(Nc2ccc(N3CCOCC3)c(F)c2)n1` [Compound 195, 2-[(3-fluoro-4-morpholino)phenylamino]-6-[(2-methyl-4,5-dihydro)imidazol-1-yl]-3-nitropyridine] was tested. Which “Cell viability (%) Calvarial cell” value did it give?
Answer: The value was 104%.

Question: Which “Cell viability (%) Calvarial cell” value does the source give for `CC(C)c1nccn1-c1ccc([N+](=O)[O-])c(Nc2ccc(N3CCOCC3)c(F)c2)n1` [Compound 196, 2-[(3-fluoro-4-morpholino)phenylamino]-6-[(2-isopropyl)imidazol-1-yl]-3-nitropyridine] here?
Answer: The value was 100%.

Question: How did the “Cell viability (%) Calvarial cell” value turn out when `CN1CCN(c2ccc([N+](=O)[O-])c(Nc3ccc(N4CCOCC4)c(F)c3)n2)CC1` [Compound 200, 2-[(3-fluoro-4-morpholino)phenylamino]-6-(4-methylpiperazin-1-yl)-3-nitropyridine] was run?
Answer: The value was 107%.

Question: With `CC(C)Nc1ccc([N+](=O)[O-])c(Nc2ccc(N3CCSCC3)c(F)c2)n1` [Compound 204, 2-[(3-fluoro-4-thiomorpholino)phenylamino]-6-(isopropylamino)-3-nitropyridine] as the molecule, how does the “Cell viability (%) Calvarial cell” value read?
Answer: Its value is 102%.

Question: How did the “Cell viability (%) Calvarial cell” value turn out when `CC1=NCCN1c1ccc([N+](=O)[O-])c(Nc2ccc(N3CCSCC3)c(F)c2)n1` [Compound 207, 2-[(3-fluoro-4-thiomorpholino)phenylamino]-6-[(2-methyl-4,5-dihydro)imidazol-1-yl]-3-nitropyridine] was run?
Answer: The value was 102%.

Question: How did the “Cell viability (%) Calvarial cell” value turn out when `CC(C)c1nccn1-c1ccc([N+](=O)[O-])c(Nc2ccc(N3CCSCC3)c(F)c2)n1` [Compound 208, 2-[(3-fluoro-4-thiomorpholino)phenylamino]-6-[(2-isopropyl)imidazol-1-yl]-3-nitropyridine] was run?
Answer: The value was 101%.

Question: How did the “Cell viability (%) Calvarial cell” value turn out when `CC(C)(C)Nc1ccc([N+](=O)[O-])c(Nc2ccc(N3CCSCC3)c(F)c2)n1` [Compound 211, 2-[(3-fluoro-4-thiomorpholino)phenylamino]-6-(t-butylamino)-3-nitropyridine] was run?
Answer: Its value is 110%.

Question: For `O=[N+]([O-])c1ccc(N2CCC(O)CC2)nc1Nc1ccc(N2CCNCC2)c(F)c1` [Compound 218, 2-[(3-fluoro-4-piperazino)phenylamino]-6-(4-hydroxypiperidino)-3-nitropyridine], which “Cell viability (%) Calvarial cell” value is on record?
Answer: The value was 96%.

Question: How did the “Cell viability (%) Calvarial cell” value turn out when `CC(C)c1nccn1-c1ccc([N+](=O)[O-])c(Nc2ccc(N3CCNCC3)c(F)c2)n1` [Compound 219, 2-[(3-fluoro-4-piperazino)phenylamino]-6-[(2-isopropyl)imidazol-1-yl]-3-nitropyridine] was run?
Answer: Its value is 89%.

Question: For `CC(C)(C)Nc1ccc([N+](=O)[O-])c(Nc2ccc(N3CCNCC3)c(F)c2)n1` [Compound 222, 2-[(3-fluoro-4-piperazino)phenylamino]-6-(t-butylamino)-3-nitropyridine], which “Cell viability (%) Calvarial cell” value is on record?
Answer: The value was 95%.
